ChEMBL document CHEMBL3797052 (Eur J Med Chem, 2016)

Experiments:
CYP1A2 = target: T1, CYP1A2 (Homo sapiens, UniProt P05177); test: Inhibition of recombinant human CYP1A2 assessed as remaining enzyme activity using CYP1A2 blue as substrate at 10 uM after 5 mins in presence of NADP by fluorescence plate reader analysis; assay type: ADME; conditions: recombinant human CYP1A2, probe CYP1A2 blue, read-out: Activity
T1 sequence (P05177 whole entry): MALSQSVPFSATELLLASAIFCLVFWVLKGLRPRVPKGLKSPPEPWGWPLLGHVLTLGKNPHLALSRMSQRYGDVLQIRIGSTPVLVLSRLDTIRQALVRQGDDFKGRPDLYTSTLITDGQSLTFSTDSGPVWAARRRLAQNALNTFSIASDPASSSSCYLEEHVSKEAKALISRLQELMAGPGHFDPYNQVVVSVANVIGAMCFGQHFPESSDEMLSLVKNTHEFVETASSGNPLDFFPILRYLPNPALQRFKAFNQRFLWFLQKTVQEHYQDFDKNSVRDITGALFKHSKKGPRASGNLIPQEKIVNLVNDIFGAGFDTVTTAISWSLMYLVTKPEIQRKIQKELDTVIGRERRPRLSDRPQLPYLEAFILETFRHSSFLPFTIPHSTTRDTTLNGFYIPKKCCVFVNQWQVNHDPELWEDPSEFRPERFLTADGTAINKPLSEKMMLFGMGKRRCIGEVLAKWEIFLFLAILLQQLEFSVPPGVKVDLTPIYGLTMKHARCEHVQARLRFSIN

CYP2D6 = CYP2D6 (Homo sapiens, UniProt P10635); test: Inhibition of recombinant human CYP2D6 assessed as remaining enzyme activity using CYP2D6 blue as substrate at 10 uM after 5 mins in presence of NADP by fluorescence plate reader analysis; assay type: ADME; conditions: recombinant human CYP2D6, probe CYP2D6 blue, read-out: Activity
Sequence of CYP2D6 (P10635 whole entry): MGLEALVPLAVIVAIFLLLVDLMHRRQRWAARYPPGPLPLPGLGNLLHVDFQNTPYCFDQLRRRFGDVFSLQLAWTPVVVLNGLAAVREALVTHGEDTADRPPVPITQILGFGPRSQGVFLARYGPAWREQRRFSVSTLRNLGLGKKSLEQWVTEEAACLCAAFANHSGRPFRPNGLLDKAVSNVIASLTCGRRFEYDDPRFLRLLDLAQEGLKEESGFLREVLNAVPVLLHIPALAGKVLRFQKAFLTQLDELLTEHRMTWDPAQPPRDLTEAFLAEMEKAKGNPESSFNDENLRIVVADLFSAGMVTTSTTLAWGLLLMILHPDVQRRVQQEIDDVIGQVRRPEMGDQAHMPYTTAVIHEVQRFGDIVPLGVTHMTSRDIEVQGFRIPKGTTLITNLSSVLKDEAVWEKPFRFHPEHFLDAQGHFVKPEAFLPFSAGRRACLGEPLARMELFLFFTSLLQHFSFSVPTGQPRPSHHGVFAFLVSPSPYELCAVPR

[1] = Antiproliferative activity against human OVCAR3 cells assessed as growth inhibition after 48 hrs by sulforhodamine B assay; assay type: functional; conditions: OVCAR-3, 48 h
[2] = Antiproliferative activity against human SW620 cells assessed as cell growth at 10^-7 M after 48 hrs by sulforhodamine B assay; assay type: functional; conditions: SW-620, 48 h, read-out: Activity
MDA-MB-468 = test: Antiproliferative activity against human MDA-MB-468 cells assessed as cell growth at 10^-4 M after 48 hrs by sulforhodamine B assay; assay type: functional; conditions: MDA-MB-468, 48 h, read-out: Activity
SK-MEL-2 [3] = test: Antiproliferative activity against human SK-MEL-2 cells assessed as growth inhibition after 48 hrs by sulforhodamine B assay; assay type: functional; conditions: SK-MEL-2, 48 h
Malme-3M = test: Antiproliferative activity against human MALME-3M cells assessed as cell growth at 10^-7 M after 48 hrs by sulforhodamine B assay; assay type: functional; conditions: read-out: Activity
[4] = Antiproliferative activity against human OVCAR5 cells assessed as cell growth at 10^-7 M after 48 hrs by sulforhodamine B assay; assay type: functional; conditions: OVCAR-5, 48 h, read-out: Activity
MDA-MB-231 = test: Antiproliferative activity against human MDA-MB-231 cells assessed as cell growth at 10^-7 M after 48 hrs by sulforhodamine B assay; assay type: functional; conditions: MDA-MB-231, 48 h, read-out: Activity
A549 = test: Antiproliferative activity against human A549/ATCC cells assessed as growth inhibition after 48 hrs by sulforhodamine B assay; assay type: functional; conditions: A549, 48 h
MCF7 = test: Antiproliferative activity against human MCF7 cells assessed as growth inhibition after 48 hrs by sulforhodamine B assay; assay type: functional; conditions: MCF7, 48 h
CYP2C9 = CYP2C9 (Homo sapiens, UniProt P11712); test: Inhibition of recombinant human CYP2C9 assessed as remaining enzyme activity using CYP2C9 green as substrate at 10 uM after 5 mins in presence of NADP by fluorescence plate reader analysis; assay type: ADME; conditions: recombinant human CYP2C9, probe CYP2C9 green, read-out: Activity
Sequence of CYP2C9 (P11712 whole entry): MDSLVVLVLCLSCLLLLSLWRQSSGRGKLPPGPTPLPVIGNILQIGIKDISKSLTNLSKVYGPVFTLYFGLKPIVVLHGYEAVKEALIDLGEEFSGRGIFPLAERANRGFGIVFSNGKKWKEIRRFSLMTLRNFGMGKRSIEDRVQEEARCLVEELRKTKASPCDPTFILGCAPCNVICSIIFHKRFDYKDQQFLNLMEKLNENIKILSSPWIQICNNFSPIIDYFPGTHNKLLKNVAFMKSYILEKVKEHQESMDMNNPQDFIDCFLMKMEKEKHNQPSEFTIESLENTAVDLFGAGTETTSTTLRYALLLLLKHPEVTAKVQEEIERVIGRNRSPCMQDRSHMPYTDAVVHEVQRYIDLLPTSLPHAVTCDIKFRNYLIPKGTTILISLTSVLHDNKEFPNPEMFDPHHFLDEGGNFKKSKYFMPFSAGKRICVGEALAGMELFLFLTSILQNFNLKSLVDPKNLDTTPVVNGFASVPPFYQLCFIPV

[5] = Antiproliferative activity against human MOLT4 cells assessed as cell growth at 10^-8 M after 48 hrs by sulforhodamine B assay; assay type: functional; conditions: MOLT-4, 48 h, read-out: Activity
[6] = Antiproliferative activity against human SW620 cells assessed as cell growth at […] M after 48 hrs by sulforhodamine B assay; assay type: functional; conditions: SW-620, 48 h, read-out: Activity
[7] = Antiproliferative activity against human LOXIMVI cells assessed as cell growth at 10^-8 M after 48 hrs by sulforhodamine B assay; assay type: functional; conditions: LOX IMVI, read-out: Activity
[8] = Antiproliferative activity against human COLO205 cells assessed as cell growth at 10^-6 M after 48 hrs by sulforhodamine B assay; assay type: functional; conditions: COLO 205, 48 h, read-out: Activity
KM12 = test: Antiproliferative activity against human KM12 cells assessed as cell growth at 10^-6 M after 48 hrs by sulforhodamine B assay; assay type: functional; conditions: KM12, 48 h, read-out: Activity
[9] = Antiproliferative activity against human RPMI8226 cells assessed as cell growth at 10^-4 M after 48 hrs by sulforhodamine B assay; assay type: functional; conditions: RPMI-8226, 48 h, read-out: Activity
EKVX = test: Antiproliferative activity against human EKVX cells assessed as cell growth at 10^-4 M after 48 hrs by sulforhodamine B assay; assay type: functional; conditions: read-out: Activity
NCI-H522 = test: Antiproliferative activity against human NCI-H522 cells assessed as cell growth at 10^-4 M after 48 hrs by sulforhodamine B assay; assay type: functional; conditions: NCI-H522, 48 h, read-out: Activity
[10] = Antiproliferative activity against human OVCAR5 cells assessed as cell growth at 10^-8 M after 48 hrs by sulforhodamine B assay; assay type: functional; conditions: OVCAR-5, 48 h, read-out: Activity
[11] = Antiproliferative activity against human NCI-ADR-RES cells assessed as cell growth at 10^-8 M after 48 hrs by sulforhodamine B assay; assay type: functional; conditions: read-out: Activity
SK-MEL-2 [12] = test: Antiproliferative activity against human SK-MEL-2 cells assessed as cell growth at 10^-6 M after 48 hrs by sulforhodamine B assay; assay type: functional; conditions: SK-MEL-2, 48 h, read-out: Activity
[13] = Antiproliferative activity against human OVCAR3 cells assessed as cell growth at 10^-6 M after 48 hrs by sulforhodamine B assay; assay type: functional; conditions: OVCAR-3, 48 h, read-out: Activity
[14] = Antiproliferative activity against human OVCAR8 cells assessed as cell growth at 10^-6 M after 48 hrs by sulforhodamine B assay; assay type: functional; conditions: OVCAR-8, 48 h, read-out: Activity
[15] = Antiproliferative activity against human SKOV3 cells assessed as cell growth at 10^-6 M after 48 hrs by sulforhodamine B assay; assay type: functional; conditions: SK-OV-3, 48 h, read-out: Activity
SK-MEL-28 = test: Antiproliferative activity against human SK-MEL-28 cells assessed as cell growth at 10^-4 M after 48 hrs by sulforhodamine B assay; assay type: functional; conditions: SK-MEL-28, 48 h, read-out: Activity
[16] = Antiproliferative activity against human TK10 cells assessed as cell growth at 10^-4 M after 48 hrs by sulforhodamine B assay; assay type: functional; conditions: TK-10, 48 h, read-out: Activity
[17] = read-out: LC50 (the source's name)

CNC(=O)c1cc(Oc2ccc3nc(NC(=O)c4cc(C(F)(F)F)cc(C(F)(F)F)c4)sc3c2)ccn1
activity at 5 min, 10 µM (CYP1A2): 98.3%
activity at 5 min, 10 µM (CYP2D6): 82.2%
GI50 [1]: 2.32 µM
LC50 [1]: 32.3 µM
TGI [1]: 6.64 µM
growth at 0.1 µM [2]: 102%
growth at 100 µM (MDA-MB-468): -30%
GI50 (SK-MEL-2 [3]): 2.32 µM
TGI (SK-MEL-2 [3]): 6.7 µM
CC50 (SK-MEL-2 [3]; [17]): 81.6 µM
growth at 0.1 µM (Malme-3M): 90%
growth at 0.1 µM [4]: 80%
growth at 0.1 µM (MDA-MB-231): 107%
GI50 (A549): 3.99 µM
TGI (A549): 14.6 µM
CC50 (A549; [17]): 61.2 µM
GI50 (MCF7): 3.37 µM
TGI (MCF7): 18 µM
CC50 (MCF7; [17]): > 100 µM
activity at 5 min, 10 µM (CYP2C9): 32.7%
growth at 0.01 µM [5]: 86%
growth at 0.01 µM [6]: 97%
growth at 0.01 µM [7]: 97%
growth at 1 µM [8]: 99%
growth at 1 µM (KM12): 86%
growth at 100 µM [9]: 15%
growth at 100 µM (EKVX): -27%
growth at 100 µM (NCI-H522): -61%
growth at 0.01 µM [10]: 96%
growth at 0.01 µM [11]: 102%
growth at 1 µM (SK-MEL-2 [12]): 90%
growth at 1 µM [13]: 90%
growth at 1 µM [14]: 90%
growth at 1 µM [15]: 90%
growth at 100 µM (SK-MEL-28): -13%
growth at 100 µM [16]: -58%
